Target: T1, ALK (Homo sapiens, UniProt Q9UM73)
T1 construct: purchased Thermo Fisher Scientific (Life Technologies) SelectScreen
Assay: SelectScreen Z'LYTE
Assay type: biochemical
Summary of the method: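 Compound tested in SelectScreen activity assays, Z'LYTE for CSF1R, CDK1/cyclin B and MAP2K6 and Adapta for CAMK1. ATP for CAMK1 was listed as 10, and Km app was used for CSF1R. Results are expressed in percent.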

T1 sequence (Q9UM73 19-1620): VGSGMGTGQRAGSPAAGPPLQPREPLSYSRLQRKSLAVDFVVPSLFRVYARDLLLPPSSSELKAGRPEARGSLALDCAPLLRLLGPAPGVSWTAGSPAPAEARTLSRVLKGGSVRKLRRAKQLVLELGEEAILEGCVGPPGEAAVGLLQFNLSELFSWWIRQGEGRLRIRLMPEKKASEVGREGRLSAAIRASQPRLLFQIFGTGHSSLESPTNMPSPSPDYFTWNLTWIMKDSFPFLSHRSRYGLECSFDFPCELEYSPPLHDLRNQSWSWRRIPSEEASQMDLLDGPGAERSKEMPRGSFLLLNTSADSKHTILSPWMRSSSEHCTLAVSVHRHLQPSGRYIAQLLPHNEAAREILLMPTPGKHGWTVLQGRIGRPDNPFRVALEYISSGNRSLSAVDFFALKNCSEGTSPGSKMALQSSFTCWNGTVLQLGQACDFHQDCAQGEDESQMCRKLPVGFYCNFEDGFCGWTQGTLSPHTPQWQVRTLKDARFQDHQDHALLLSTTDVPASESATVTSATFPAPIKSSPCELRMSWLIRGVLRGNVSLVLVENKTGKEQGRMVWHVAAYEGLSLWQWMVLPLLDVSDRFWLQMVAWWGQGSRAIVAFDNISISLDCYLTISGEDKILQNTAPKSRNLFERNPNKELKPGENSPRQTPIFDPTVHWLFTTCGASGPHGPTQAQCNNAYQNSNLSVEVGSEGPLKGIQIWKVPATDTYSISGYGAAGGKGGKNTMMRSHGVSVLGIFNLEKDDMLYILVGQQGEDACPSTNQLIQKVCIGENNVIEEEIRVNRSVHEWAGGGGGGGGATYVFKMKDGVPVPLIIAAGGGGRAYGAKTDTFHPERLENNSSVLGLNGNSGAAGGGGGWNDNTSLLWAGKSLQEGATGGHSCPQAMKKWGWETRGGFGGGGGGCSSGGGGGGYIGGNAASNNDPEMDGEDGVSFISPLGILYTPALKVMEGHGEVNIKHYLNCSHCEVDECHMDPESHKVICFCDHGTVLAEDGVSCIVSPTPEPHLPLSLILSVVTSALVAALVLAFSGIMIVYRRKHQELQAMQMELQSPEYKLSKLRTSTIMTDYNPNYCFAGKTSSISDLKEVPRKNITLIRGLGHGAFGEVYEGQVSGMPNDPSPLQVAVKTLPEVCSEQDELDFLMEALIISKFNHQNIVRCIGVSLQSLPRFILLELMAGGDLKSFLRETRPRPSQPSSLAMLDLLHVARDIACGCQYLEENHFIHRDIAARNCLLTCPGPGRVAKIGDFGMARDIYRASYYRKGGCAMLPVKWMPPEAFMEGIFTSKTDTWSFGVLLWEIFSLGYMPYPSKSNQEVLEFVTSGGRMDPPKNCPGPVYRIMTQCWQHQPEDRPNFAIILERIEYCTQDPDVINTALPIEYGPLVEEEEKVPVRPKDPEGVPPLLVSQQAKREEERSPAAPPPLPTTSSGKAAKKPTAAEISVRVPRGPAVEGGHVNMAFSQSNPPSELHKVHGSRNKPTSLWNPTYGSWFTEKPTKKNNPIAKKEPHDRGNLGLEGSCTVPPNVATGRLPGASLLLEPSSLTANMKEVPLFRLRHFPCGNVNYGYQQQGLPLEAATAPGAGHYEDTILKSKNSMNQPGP

Compound CN(C(=O)CN1CCOCC1)c1ccc2sc3c(-c4cccc5c(=O)cc(N6CC7CCC(C6)O7)oc45)cccc3c2c1 [NU5455] has an inhibition at 1 µM of 17.3%.

— article PMC6934184, “Selective DNA-PKcs inhibition extends the therapeutic index of localized radiotherapy and chemotherapy” (The Journal of Clinical Investigation, 2019)
